What was measured:
physchem = details: PBS, pH 7
P-gp [1] = experiment: in vitro; details: pig, LLC-PK1
P-gp [2] = experiment: in vitro; details: pig, LLC-PK1; remark: listed apart in the source

SMILES	logD (physchem)	Papp (P-gp [1]) [×10⁻⁶ cm/s]	Papp (P-gp [2]) [×10⁻⁶ cm/s]
NC(=O)c1cc(-c2ccc(F)cc2)c2ccc(CN3C(=O)CCC3=O)cc2n1	2.24	–	–
NC(=O)c1cc(-c2ccc(F)cc2)c2ccc(Cc3ccncc3)cc2n1	2.7	–	–
NC(=O)c1cc(-c2ccc(F)cc2)c2ccc(CCc3cncnc3)cc2n1	2.31	30	28
NC(=O)c1cc(-c2ccc(F)cc2)c2ccc(CCc3cccnc3)cc2n1	2.85	21	22
NC(=O)c1cc(-c2ccc(F)cc2)c2ccc(CCc3ccncc3)cc2n1	2.88	21	24
